For 35 compounds, IC50 results are on record in patent US12565497B2 (Hoffmann-La Roche Inc., priority 2020, dated 2026).

Where a name gives a salt, the structure may show the parent alone.

The IC50 is the concentration needed to halve the response being measured.

Chain of Recombinant human Mat2a (P31153 whole entry): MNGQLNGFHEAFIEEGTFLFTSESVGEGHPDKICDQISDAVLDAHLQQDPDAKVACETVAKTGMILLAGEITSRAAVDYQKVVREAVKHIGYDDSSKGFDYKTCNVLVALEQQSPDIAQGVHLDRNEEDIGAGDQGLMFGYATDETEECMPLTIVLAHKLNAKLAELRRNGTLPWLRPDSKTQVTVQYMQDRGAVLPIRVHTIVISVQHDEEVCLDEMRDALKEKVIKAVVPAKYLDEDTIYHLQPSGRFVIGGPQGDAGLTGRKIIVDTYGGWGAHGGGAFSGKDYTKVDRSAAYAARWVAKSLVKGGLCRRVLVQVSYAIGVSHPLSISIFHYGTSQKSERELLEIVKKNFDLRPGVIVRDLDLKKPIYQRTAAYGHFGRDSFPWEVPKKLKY

This assay addresses Recombinant human Mat2a (Homo sapiens (Human), UniProt P31153). Nature of the assay: Determination of Mat2A activity (384 well absorbance-based assay, Biomol Green). Format: biochemical. To be noted: 12.5 nM Mat2A, 100 μM ATP and Methionine, 2% DMSO, 120 minutes at RT, absorbance at 635 nm; read-out: MAT2A_LEC IC50 (uM) (Num). As for the experimental part: Determination of Mat2A Activity
Measurement of Mat2A inhibition is performed in 384 well format absorbance-based assay. Recombinant human Mat2a (12.5 nM) and serial diluted compounds in DMSO (range of concentrations from 10 μM to 508 pM) or controls (DMSO) are incubated for 15 minutes at room temperature (RT) in assay buffer containing 50 mM HEPES pH 7.5, 50 mM KCl, 50 mM MgCl2, 0.01%Tween 20 and 10 mM DTT. The reaction is initiated by the addition of the combined substrates ATP and Methionine, each at a final concentration of 100 μM. Final assay condition are 12.5 nM Mat2A, 100 μM ATP and Methionine Substrates and 2% DMSO. After 120 minutes of incubation at RT, the reaction is stopped by the addition of Biomol Green. The absorbance signal is measured at λ=635 nm with a multiplate reader (BMG Pherastar reader or equivalent) after 30 min of equilibration at RT.
On to `Cc1cc(-c2nccc3[nH]nc(C(F)F)c23)ccc1S(C)(=O)=O` [Example 18, 3-(difluoromethyl)-4-(3-methyl-4-methylsulfonylphenyl)-1H-pyraxolo[4,3-c]pyridine], for which the IC50 is 0.095 µM.
Regarding `Cc1cc(-c2nccc3[nH]nc(C(C)C)c23)ccc1S(C)(=O)=O` [Example 19, 3-isopropyl-4-(3-methyl-4-(methylsulfonyl)phenyl)-1H-pyrazolo[4,3-c]pyridine], the IC50 turned out to be 0.042 µM.
Consider `Cc1cc(-c2nccc3[nH]nc(C4CC4)c23)c(F)cc1S(C)(=O)=O` [Example 21, 3-cyclopropyl-4-(2-fluoro-5-methyl-4-methylsulfonyl-phenyl)-1H-pyrazolo[4,3-c]pyridine], for which the IC50 was 0.056 µM.
As for `Cc1cc(S(C)(=O)=O)c(C)cc1-c1nccc2[nH]nc(C3CC3)c12` [Example 22, 3-cyclopropyl-4-(2,5-dimethyl-4-methylsulfonyl-phenyl)-1H-pyrazolo[4,3-c]pyridine hydrochloride], the IC50 is 0.15 µM.
In the case of `Cc1cc(-c2nccc3[nH]nc(C4CC4)c23)ccc1[S+](C)[O-]` (centres unmarked) [Example 23, 3-cyclopropyl-4-(3-methyl-4-methylsulfmyl-phenyl)-1H-pyrazolo[4,3-c]pyridine hydrochloride], the IC50 was found to be 0.083 µM.
Consider `COc1ncc2[nH]nc(C3CC3)c2c1-c1ccc(S(C)(=O)=O)c(C)c1` [Example 24, 3-cyclopropyl-5-methoxy-4-(3-methyl-4-(methylsulfonyl)phenyl)-1H-pyrazolo[3,4-c]pyridine], for which the IC50 was below 0.013 µM.
Turning to `Cc1cc(-c2nccc3[nH]nc(OC(F)F)c23)ccc1S(=O)(=O)C(F)F` [Example 25, 3-(difluoromethoxy)-4-[4-(difluoromethylsulfonyl)-3-methyl-phenyl]-1H-pyrazolo[4,3-c]pyridine], the IC50 amounted to 0.013 µM.
`Cc1cc(-c2nccc3[nH]nc(OC(F)F)c23)ccc1S(=O)(=O)C1CC1` [Example 26, 4-(4-cyclopropylsulfonyl-3-methyl-phenyl)-3-(difluoromethoxy)-1H-pyrazolo[4,3-c]pyridine]: the concentration for half-maximal inhibition (IC50) was below 0.013 µM.
For `CCS(=O)(=O)c1ccc(-c2nccc3[nH]nc(OC(F)F)c23)cc1C` [Example 27, 3-(difluoromethoxy)-4-(4-ethylsulfonyl-3-methyl-phenyl)-1H-pyrazolo[4,3-c]pyridine], the IC50 is below 0.013 µM.
`Cc1cc(-c2nccc3[nH]nc(C4COC4)c23)ccc1S(C)(=O)=O` [Example 28, 4-(3-methyl-4-methylsulfonyl-phenyl)-3-(oxetan-3-yl)-1H-pyrazolo[4,3-c]pyridine]: the IC50 came to 0.51 µM.
For the compound `Cc1cc(-c2nccc3[nH]nc(OC(F)F)c23)ccc1S(=O)(=O)CC1CC1` [Example 29, 4-[4-(cyclopropylmethylsulfonyl)-3-methyl-phenyl]-3-(difluoromethoxy)-1H-pyrazolo[4,3-c]pyridine], the half-inhibitory concentration (IC50) is 0.29 µM.
With `CCCS(=O)(=O)c1ccc(-c2nccc3[nH]nc(OC(F)F)c23)cc1C` [Example 30], the IC50 turned out to be 0.057 µM.
The same measure for `CS(=O)(=O)c1ccc(-c2nccc3[nH]nc(OC(F)F)c23)cc1C(F)F` [Example 31]: 0.033 µM; for `Cc1cc(-c2nccc3[nH]nc(OC(F)F)c23)ccc1S(=O)(=O)C(C)C` [Example 32]: below 0.013 µM; for `CNS(=O)(=O)c1ccc(-c2nccc3[nH]nc(OC(F)F)c23)cc1C` [Example 33, 4-[3-(difluoromethoxy)-1H-pyrazolo[4,3-c]pyridin-4-yl]-N,2-dimethyl-benzenesulfonamide]: 0.029 µM.
`Cc1cc(-c2nc(Cl)cc3[nH]nc(C4CC4)c23)ccc1S(C)(=O)=O` [Example 34, 6-chloro-3-cyclopropyl-4-(3-methyl-4-methylsulfonylphenyl)-1H-pyrazolo[4,3-c]pyridine]: the concentration for half-maximal inhibition (IC50) is below 0.013 µM.
The result for `Cc1cc(-c2nccc3[nH]nc(OC(F)F)c23)ccc1S(=O)(=O)C1COC1` [Example 35, 3-(difluoromethoxy)-4-[3-methyl-4-(oxetan-3-ylsulfonyl)phenyl]-1H-pyrazolo[4,3-c]pyridine] reads 0.12 µM; that for `Cc1cc(-c2nccc3[nH]nc(OC(F)F)c23)ccc1S(=O)(=O)CCO` [Example 36, 2-[4-[3-(difluoromethoxy)-1H-pyrazolo[4,3-c]pyridin-4-yl]-2-methyl-phenyl]sulfonylethanol], 0.051 µM; that for `Cc1cc(-c2nccc3[nH]nc(OC(F)F)c23)ccc1S(=O)(=O)C1(C)CC1` [Example 37, 3-(difluoromethoxy)-4-[3-methyl-4-(1-methylcyclopropyl)sulfonyl-phenyl]-1H-pyrazolo[4,3-c]pyridine], 0.1 µM.
On to `COCS(=O)(=O)c1ccc(-c2nccc3[nH]nc(OC(F)F)c23)cc1C` [Example 38, 3-(difluoromethoxy)-4-[4-(methoxymethylsulfonyl)-3-methyl-phenyl]-1H-pyrazolo[4,3-c]pyridine], for which the half-maximal inhibitory concentration (IC50) was found to be 0.021 µM.
Consider `COc1ncc2[nH]nc(C(F)(F)F)c2c1-c1ccc(S(C)(=O)=O)c(C)c1` [Example 39, 5-methoxy-4-(3-methyl-4-(methylsulfonyl)phenyl)-3-(trifluoromethyl)-1H-pyrazolo[3,4-c]pyridine], for which the IC50 was below 0.013 µM.
For `Cc1cc(-c2nccc3[nH]cc(C(F)(F)F)c23)ccc1S(C)(=O)=O` [Example 40, 4-(3-methyl-4-(methylsulfonyl)phenyl)-3-(trifluoromethyl)-1H-pyrrolo[3,2-c]pyridine], the IC50 came to 0.029 µM.
Take `COCc1ncc2[nH]nc(C3CC3)c2c1-c1ccc(S(C)(=O)=O)c(C)c1` [Example 41, 3-cyclopropyl-5-(methoxymethyl)-4-(3-methyl-4-(methylsulfonyl)phenyl)-1H-pyrazolo[3,4-c]pyridine]: the IC50 was 0.14 µM.
Take `CCS(=O)(=O)c1ccc(-c2c(C#N)ncc3[nH]nc(C4CC4)c23)cc1C` [Example 42, 3-cyclopropyl-4-(4-ethylsulfonyl-3-methyl-phenyl)-1H-pyrazolo[3,4-c]pyridine-5-carbonitrile]: the IC50 was below 0.013 µM.
Take `Cc1cc(-c2c(C#N)ncc3[nH]nc(C4CC4)c23)ccc1S(=O)(=O)C1CC1` [Example 43, 3-cyclopropvl-4-(4-cyclopropylsulfonyl-3-methyl-phenyl)-1H-pyrazolo[3,4-c]pyridine-5-carbonitrile]: the IC50 was below 0.013 µM.
The result for `Cc1cc(-c2c(S(C)(=O)=O)ccc3[nH]nc(C(F)(F)F)c23)ccc1S(C)(=O)=O` [Example 44, 4-(3-methyl-4-(methylsulfonyl)phenyl)-5-(methylsulfonyl)-3-(trifluoromethyl)-1H-indazole] reads 0.017 µM.
The same measure for `Cc1cc(-c2c(C#N)ccc3[nH]cc(C4CC4)c23)ccc1S(C)(=O)=O` [Example 45, 3-cyclopropyl-4-(3-methyl-4-methylsulfonylphenyl)-1H-indole-5-carbonitrile]: 0.02 µM; for `CNC(=O)c1ncc2[nH]nc(C3CC3)c2c1-c1ccc(S(=O)(=O)C2CC2)c(C)c1` [Example 46, 3-cyclopropyl-4-(4-cyclopropylsulfonyl-3-methyl-phenyl)-N-methyl-1H-pyrazolo[3,4-c]pyridine-5-carboxamide]: below 0.013 µM; for `Cc1cc(-c2c(C#N)ncc3[nH]nc(C4CC4)c23)c(F)cc1S(C)(=O)=O` [Example 47, 3-cyclopropyl-4-(2-fluoro-5-methyl-4-methylsulfonyl-phenyl)-1H-pyrazolo[3,4-c]pyridine-5-carbonitrile]: 0.017 µM.
For the compound `CN(C)S(=O)(=O)c1ccc(-c2nccc3[nH]nc(OC(F)F)c23)cc1C(F)F` [Example 48, 4-[3-(difluoromethoxy)-1H-pyrazolo[4,3-c]pyridin-4-yl]-2-(difluoromethvl)-N,N-dimethyl-benzenesulfonamide], the IC50 was found to be 0.13 µM.
As to `Cc1cc(-c2c(C#N)ncc3[nH]nc(C4CC4)c23)ccc1S(=O)(=O)C(F)F` [Example 50, 3-cyclopropyl-4-[4-(difluoromethylsulfonyl)-3-methyl-phenyl]-1H-pyrazolo[3,4-c]pyridine-5-carbonitrile], the IC50 was below 0.013 µM.
With `CNC(=O)c1ncc2[nH]nc(C3CC3)c2c1-c1ccc(S(C)(=O)=O)c(C(F)F)c1` [Example 51, 3-cyclopropyl-4-[3-(difluoromethyl)-4-methylsulfonyl-phenyl]-N-methyl-1H-pyrazolo[3,4-c]pyridine-5-carboxamide], the IC50 is below 0.013 µM.
`Cc1cc(-c2c(C#N)ncc3[nH]nc(OC(F)F)c23)ccc1S(C)(=O)=O` [Example 52, 3-(difluoromethoxy)-4-(3-methyl-4-methylsulfonyl-phenyl)-1H-pyrazolo[3,4-c]pyridine-5-carbonitrile]: the IC50 was below 0.013 µM.
For `Cc1cc([S+](C)[O-])c(C(F)F)cc1-c1c(C#N)ncc2[nH]nc(OC(F)F)c12` (centres unmarked) [Example 53, 3-(difluoromethoxy)-4-[5-(difluoromethyl)-2-methyl-4-methylsulfinyl-phenyl]-1H-pyrazolo[3,4-c]pyridine-5-carbonitrile], the IC50 came to 0.062 µM.
Regarding `COc1ncc2[nH]nc(C(F)(F)F)c2c1-c1ccc(S(C)(=O)=O)c(C(F)F)c1` [Example 54, 4-[3-(difluoromethyl)-4-methylsulfonyl-phenyl]-5-methoxy-3-(trifluoromethyl)-1H-pyrazolo[3,4-c]pyridine], the concentration for half-maximal inhibition (IC50) is 0.015 µM.
